Source: patent US8916526B2, “Flavanone derivative” (National University Corporation Okayama University, priority 2009, dated 2014)
Converted amounts (≈) assume the structure as drawn.

Experiments:
[1] = biological target: T1, DNA gyrase of Escherichia coli (Escherichia coli, UniProt P0AES4+P0AES6); test: DNA gyrase inhibition (supercoiling assay kit), Exp. Ex. 1-2; type: biochemical; conditions: E. coli DNA gyrase supercoiling, relaxed pBR322, 37° C., 30 minutes; read-out: Gyrase inhibitory activity IC50 (converted)
T1 construct: purchased John Innes Enterprises #K0001
Description: As a kit for measurement of DNA gyrase of Escherichia coli, a product purchased from John Innes Enterprises (Gyrase Supercoiling assay kit #K0001) was used. Relaxed DNA was modified with gyrase into supercoiled DNA, and reaction products were separated by electrophoresis depending on the sizes of the molecular weights to examine anti-gyrase effects (IC50). One unit (1 U) of DNA gyrase and […] of relaxed pBR322 DNA were added to […] of the reaction solution, and the mixture was allowed to react at 37° C. for 30 minutes in the presence of 35 mM Tris-HCl (pH 7.5), 24 mM KCl, 4 mM MgCl2, 2 mM DTT, 1.8 mM spermidine, 1 mM ATP, 6.5% (w/v) glycerol, and 0.1 mg/ml BSA. The reactions were stopped using […] of a reaction stop solution (40% sucrose, 100 mM Tris-HCl (pH 7.5), 1 mM EDTA, 0.5 mg/ml bromophenol blue).

[2] = tested on: VISA Mu50; test: In vitro infectivity assay (MIC), broth dilution, Exp. Ex. 1-1; type: cell-based, Staphylococcus aureus; conditions: Staphylococcus aureus; VISA Mu50; Mueller-Hinton broth, 35° C., 24 hours; read-out: MIC VISA Mu50
Description: (§1) The antibacterial activities were measured based on broth dilution techniques of international standards (Clinical Laboratory Standards Institute: CLSI). The activities were shown by minimum inhibitory concentrations (MICs) determined by inoculating the above-mentioned strains at a concentration of about 10^5 […] into Mueller-Hinton broth (manufactured by Difco) containing 0.85% NaCl in 96-well microplates and incubating the plates at 35° C. for 24 hours. Measurement was carried out three times.
(§2) The antibacterial activities of the compounds of the present invention against various strains such as methicillin-resistant Staphylococcus aureus (MRSA), vancomycin intermediate-resistant Staphylococcus aureus (VISA), methicillin-sensitive Staphylococcus aureus (MSSA), and vancomycin-resistant enterococci (VRE) were examined. Of the bacteria used in MIC measurement in this test example, clinical bacteria of MRSA (OM481 strain and OM584 strain) were supplied from Okayama University Hospital (Japan). An MRSA strain N315, a vancomycin intermediate-resistant Staphylococcus aureus (VISA) strain Mu50, and a methicillin-sensitive Staphylococcus aureus (MSSA) strain FDA 209P were used as controls. Vancomycin-resistant enterococcus (VRE) strains NCTC 12201 and FN-1 were supplied from the National Institute of Infectious Disease (Japan).

[3] = tested on: MRSA OM481; test: as above; type: cell-based, Staphylococcus aureus; conditions: Staphylococcus aureus; MRSA OM481; Mueller-Hinton broth, 35° C., 24 hours; read-out: MIC MRSA OM481
Description: as §1, §2

[4] = tested on: MRSA N315; test: as above; type: cell-based, Staphylococcus aureus; conditions: Staphylococcus aureus; MRSA N315; Mueller-Hinton broth, 35° C., 24 hours; read-out: MIC MRSA N315
Description: as §1, §2

[5] = tested on: MRSA OM58; test: as above; type: cell-based, Staphylococcus aureus; conditions: Staphylococcus aureus; MRSA OM58; Mueller-Hinton broth, 35° C., 24 hours; read-out: MIC MRSA OM58
Description: as §1, §2

[6] = tested on: MSSA FDA 209P; test: as above; type: cell-based, Staphylococcus aureus; conditions: Staphylococcus aureus; MSSA FDA 209P; Mueller-Hinton broth, 35° C., 24 hours; read-out: MIC MSS 209P
Description: as §1, §2

[7] = tested on: VRE FN-1; test: as above; type: cell-based, enterococci; conditions: Enterococcus; VRE FN-1; Mueller-Hinton broth, 35° C., 24 hours; read-out: MIC VRE FN-1
Description: as §1, §2

[8] = tested on: VRE NCTC12201; test: as above; type: cell-based, enterococci; conditions: Enterococcus; VRE NCTC12201; Mueller-Hinton broth, 35° C., 24 hours; read-out: MIC VRE NCTC12201
Description: as §1, §2

[9] = tested on: Streptococcus pneumoniae R6; test: In vitro infectivity assay (MIC), Exp. Ex. 2-1; type: cell-based; conditions: Streptococcus pneumoniae, R6; Gram-positive; microdilution, MIC after 24 h; read-out: MIC S. Pneumoniae R6
[10] = tested on: Methicillin-resistant S. aureus N315; test: In vitro infectivity assay (MIC), Exp. Ex. 2-1; type: cell-based, Staphylococcus aureus; conditions: Staphylococcus aureus, MRSA; Gram-positive; microdilution, MIC after 24 h; read-out: MIC MRSA N315
Outline: (§3)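 Activity is expressed as MIC under CLSI broth dilution, using a starting inoculum near 10^5 CUF/[…] in Mueller-Hinton medium plus 0.85% NaCl; plates sit at 35° C for 24 hours, three measurements.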

[11] = tested on: Methicillin-resistant S. aureus OM481; test: In vitro infectivity assay (MIC), Exp. Ex. 2-1; type: cell-based, Staphylococcus aureus; conditions: Staphylococcus aureus, MRSA; Gram-positive; microdilution, MIC after 24 h; read-out: MIC MRSA OM481
Outline: as §3

[12] = tested on: Methicillin-resistant S. aureus COL; test: In vitro infectivity assay (MIC), Exp. Ex. 2-1; type: cell-based, Staphylococcus aureus; conditions: Staphylococcus aureus, MRSA; Gram-positive; microdilution, MIC after 24 h
[13] = tested on: Methicillin sensitive S. aureus 209P; test: In vitro infectivity assay (MIC), Exp. Ex. 2-1; type: cell-based, Staphylococcus aureus; conditions: Staphylococcus aureus, 209P / MSSA; Gram-positive; microdilution, MIC after 24 h; read-out: MIC MSSA 209P
Outline: as §3

[14] = tested on: Methicillin-resistant S. aureus OM584; test: In vitro infectivity assay (MIC), Exp. Ex. 2-1; type: cell-based, Staphylococcus aureus; conditions: Staphylococcus aureus, MRSA; Gram-positive; microdilution, MIC after 24 h; read-out: MIC MRSA OM584
Outline: as §3

[15] = tested on: Escherichia coli K-12; test: Antibacterial activity (MIC) against Gram-negative strains, microdilution; type: cell-based; conditions: K12, MIC after 24 h, read-out: MIC (Gram-nagative) K-12
Outline: (§4)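 CLSI broth microdilution in Mueller-Hinton broth with 0.85% NaCl, inoculum about 10^5 […]. Incubated 35° C for 24 hours; MIC taken as the minimum inhibitory concentration, measured three times.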

[16] = tested on: Pseodomonas aeruginosa PAOI; test: as above; type: cell-based; conditions: MIC after 24 h, read-out: MIC (Gram-nagative) PAO1
Outline: as §4

[17] = biological target: T2, E. coli DNA gyrase (Escherichia coli, UniProt P0AES4+P0AES6); test: DNA gyrase inhibition (supercoiling kit), Exp. Ex. 2-2; type: biochemical
T2 construct: purchased John Innes Enterprises #K0001
Outline: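 IC50 derived from gel electrophoresis separating supercoiled from relaxed DNA. Reactions ran 30 minutes at 37° C with 1 U gyrase, […] relaxed pBR322, 1 mM ATP and 4 mM MgCl2 in Tris-HCl buffer (pH 7.5), then stopped with EDTA-containing solution.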

[18] = biological target: T3, Staphylococcus aureus Topoisomerase IV (Staphylococcus aureus, UniProt P0C1S7+P0C1U9); test: Topoisomerase IV inhibition (decatenation kit), Exp. Ex. 2-3; type: biochemical
T3 construct: purchased John Innes Enterprises
Outline: (§5)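 Decatenation of 200 ng kinetoplast DNA by 1 unit enzyme, 30 min at 37 °C. S. aureus: 50 mM Tris-HCl pH 7.5, 350 mM potassium glutamate, 1.5 mM ATP; E. coli: 50 mM HEPES-KOH pH 7.6, 100 mM potassium glutamate, 1 mM ATP. Products resolved on 1.0% agarose in TAE.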

[19] = biological target: T4, Escherichia coli Topoisomerase IV (Escherichia coli, UniProt P0AFI2+P20083); test: as above; type: biochemical; conditions: decatenation of kDNA, 37° C., 30 minutes; read-out: IC50 (E. coli topoisomerase IV inhibitions)
T4 construct: purchased John Innes Enterprises
Outline: as §5

[20] = tested on: Vancomycin-resistant enterococci NCTC 12201; test: In vitro infectivity assay (MIC), Exp. Ex. 2-1; type: cell-based; conditions: Enterococcus, NCTC 12201 / VRE; Gram-positive; microdilution, MIC after 24 h; read-out: MIC VRE NCTC 12201
Outline: as §3

[21] = tested on: Vancomycin intermediate-resistant Staphylococcus aureus Mu50; test: In vitro infectivity assay (MIC), Exp. Ex. 2-1; type: cell-based; conditions: Staphylococcus aureus, VISA; Gram-positive; microdilution, MIC after 24 h; read-out: MIC VISA Mu50
Outline: as §3

[22] = tested on: Vancomycin-resistant enterococci FN-1; test: In vitro infectivity assay (MIC), Exp. Ex. 2-1; type: cell-based; conditions: Enterococcus, VRE; Gram-positive; microdilution, MIC after 24 h; read-out: MIC VRE FN-1
Outline: as §3

T1 sequence (P0AES4 whole entry, one chain of several): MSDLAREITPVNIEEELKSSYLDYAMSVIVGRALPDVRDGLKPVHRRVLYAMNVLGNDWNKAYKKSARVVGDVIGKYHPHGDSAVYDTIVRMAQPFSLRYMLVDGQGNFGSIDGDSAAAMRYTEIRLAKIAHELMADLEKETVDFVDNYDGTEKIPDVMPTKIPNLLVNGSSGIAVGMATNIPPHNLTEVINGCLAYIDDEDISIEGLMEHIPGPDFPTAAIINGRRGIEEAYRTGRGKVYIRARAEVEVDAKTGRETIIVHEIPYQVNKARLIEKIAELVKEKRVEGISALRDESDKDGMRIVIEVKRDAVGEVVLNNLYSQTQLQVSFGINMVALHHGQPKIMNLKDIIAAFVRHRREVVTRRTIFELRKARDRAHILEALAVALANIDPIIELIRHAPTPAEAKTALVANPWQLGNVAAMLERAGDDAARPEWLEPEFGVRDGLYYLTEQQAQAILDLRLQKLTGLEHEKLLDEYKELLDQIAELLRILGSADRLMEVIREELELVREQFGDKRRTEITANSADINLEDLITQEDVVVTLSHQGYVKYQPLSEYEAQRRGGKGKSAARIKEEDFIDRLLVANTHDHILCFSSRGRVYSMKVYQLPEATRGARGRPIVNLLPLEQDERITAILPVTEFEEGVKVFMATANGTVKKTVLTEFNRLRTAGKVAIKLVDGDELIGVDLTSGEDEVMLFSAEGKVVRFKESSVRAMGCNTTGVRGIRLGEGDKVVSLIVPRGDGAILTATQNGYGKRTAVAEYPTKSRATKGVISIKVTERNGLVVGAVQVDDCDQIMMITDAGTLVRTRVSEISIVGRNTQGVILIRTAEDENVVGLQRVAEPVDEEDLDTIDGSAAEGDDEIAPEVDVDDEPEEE
T4 sequence (P20083 whole entry): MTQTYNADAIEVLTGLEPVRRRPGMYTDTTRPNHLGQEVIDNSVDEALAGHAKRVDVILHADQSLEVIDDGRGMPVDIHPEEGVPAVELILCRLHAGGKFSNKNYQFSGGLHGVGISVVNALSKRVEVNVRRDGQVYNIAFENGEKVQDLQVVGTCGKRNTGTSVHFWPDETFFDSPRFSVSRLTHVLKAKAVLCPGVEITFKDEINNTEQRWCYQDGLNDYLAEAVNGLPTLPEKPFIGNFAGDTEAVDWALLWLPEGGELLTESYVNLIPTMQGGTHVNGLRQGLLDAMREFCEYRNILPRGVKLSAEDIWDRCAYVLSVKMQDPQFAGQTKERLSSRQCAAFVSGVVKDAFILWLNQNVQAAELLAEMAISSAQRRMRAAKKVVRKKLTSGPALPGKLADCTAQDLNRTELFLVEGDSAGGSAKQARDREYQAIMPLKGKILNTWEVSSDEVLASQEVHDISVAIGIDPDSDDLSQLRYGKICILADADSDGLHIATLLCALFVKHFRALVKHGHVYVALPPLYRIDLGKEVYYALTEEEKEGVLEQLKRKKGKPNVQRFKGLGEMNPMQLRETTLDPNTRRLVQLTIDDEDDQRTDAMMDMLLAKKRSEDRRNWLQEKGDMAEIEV
T4 sequence (P0AFI2 whole entry): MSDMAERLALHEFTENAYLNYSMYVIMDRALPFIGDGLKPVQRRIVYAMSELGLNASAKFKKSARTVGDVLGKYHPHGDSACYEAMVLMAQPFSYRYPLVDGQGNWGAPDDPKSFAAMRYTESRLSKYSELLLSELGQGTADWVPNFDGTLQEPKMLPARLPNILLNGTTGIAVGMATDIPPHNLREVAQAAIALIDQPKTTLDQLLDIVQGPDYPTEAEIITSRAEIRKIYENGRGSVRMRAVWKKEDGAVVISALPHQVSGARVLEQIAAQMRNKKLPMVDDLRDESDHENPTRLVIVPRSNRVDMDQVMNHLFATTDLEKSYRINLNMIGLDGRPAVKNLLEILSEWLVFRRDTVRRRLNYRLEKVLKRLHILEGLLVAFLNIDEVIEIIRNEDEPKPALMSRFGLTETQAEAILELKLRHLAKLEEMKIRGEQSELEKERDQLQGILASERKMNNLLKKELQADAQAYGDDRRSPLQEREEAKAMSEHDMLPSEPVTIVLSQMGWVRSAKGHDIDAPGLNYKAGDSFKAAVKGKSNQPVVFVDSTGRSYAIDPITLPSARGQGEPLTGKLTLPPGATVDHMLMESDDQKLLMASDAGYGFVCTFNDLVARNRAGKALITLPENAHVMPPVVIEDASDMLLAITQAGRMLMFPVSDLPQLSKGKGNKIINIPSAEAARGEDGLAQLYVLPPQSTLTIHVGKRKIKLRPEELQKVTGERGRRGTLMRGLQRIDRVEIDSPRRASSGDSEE
T3 sequence (P0C1U9 whole entry): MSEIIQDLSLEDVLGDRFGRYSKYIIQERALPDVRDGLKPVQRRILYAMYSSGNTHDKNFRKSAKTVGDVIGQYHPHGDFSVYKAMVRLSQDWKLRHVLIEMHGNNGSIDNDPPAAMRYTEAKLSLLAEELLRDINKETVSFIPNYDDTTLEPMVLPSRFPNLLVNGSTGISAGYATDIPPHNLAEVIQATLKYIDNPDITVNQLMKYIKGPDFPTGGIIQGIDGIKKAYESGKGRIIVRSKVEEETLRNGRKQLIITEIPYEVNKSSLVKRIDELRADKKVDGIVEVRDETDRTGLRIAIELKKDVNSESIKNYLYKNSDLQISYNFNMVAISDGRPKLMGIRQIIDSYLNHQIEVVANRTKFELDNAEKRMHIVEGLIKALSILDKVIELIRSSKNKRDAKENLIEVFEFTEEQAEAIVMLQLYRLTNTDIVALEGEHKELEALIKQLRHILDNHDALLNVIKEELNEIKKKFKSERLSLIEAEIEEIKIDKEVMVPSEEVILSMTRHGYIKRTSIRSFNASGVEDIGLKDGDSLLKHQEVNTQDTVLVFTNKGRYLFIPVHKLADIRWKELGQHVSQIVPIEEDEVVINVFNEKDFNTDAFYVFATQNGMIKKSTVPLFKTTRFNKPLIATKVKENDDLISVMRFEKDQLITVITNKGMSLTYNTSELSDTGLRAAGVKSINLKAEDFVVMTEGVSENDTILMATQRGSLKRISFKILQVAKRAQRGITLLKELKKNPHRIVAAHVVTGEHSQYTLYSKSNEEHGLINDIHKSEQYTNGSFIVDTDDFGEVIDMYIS
T3 sequence (P0C1S7 whole entry): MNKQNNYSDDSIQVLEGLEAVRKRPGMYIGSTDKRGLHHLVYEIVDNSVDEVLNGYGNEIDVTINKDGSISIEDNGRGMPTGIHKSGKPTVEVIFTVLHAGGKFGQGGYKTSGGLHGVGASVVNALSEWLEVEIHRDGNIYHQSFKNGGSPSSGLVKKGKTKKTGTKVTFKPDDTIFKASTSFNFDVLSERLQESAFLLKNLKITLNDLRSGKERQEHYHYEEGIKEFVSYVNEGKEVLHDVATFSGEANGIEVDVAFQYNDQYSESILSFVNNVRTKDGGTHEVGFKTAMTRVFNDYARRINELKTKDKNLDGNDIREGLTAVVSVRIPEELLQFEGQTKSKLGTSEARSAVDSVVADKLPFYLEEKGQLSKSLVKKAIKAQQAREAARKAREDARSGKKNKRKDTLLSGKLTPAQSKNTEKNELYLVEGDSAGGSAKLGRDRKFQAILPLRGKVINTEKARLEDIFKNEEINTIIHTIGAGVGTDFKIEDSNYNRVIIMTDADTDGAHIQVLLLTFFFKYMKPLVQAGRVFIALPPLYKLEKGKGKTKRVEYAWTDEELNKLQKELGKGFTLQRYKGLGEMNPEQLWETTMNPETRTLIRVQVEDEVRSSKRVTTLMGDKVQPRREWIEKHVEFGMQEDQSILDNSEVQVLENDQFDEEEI
T2 sequence (P0AES4 whole entry, one chain of several): as the sequence (P0AES4 whole entry, one chain of several) above

Structure (SMILES)	melting point	IC50 [1]	MIC [2]	MIC [3]	MIC [4]	MIC [5]	MIC [6]	MIC [7]	MIC [8]	MIC [9]	MIC [10]	MIC [11]	MIC [12]	MIC [13]	MIC [14]	MIC [15]	MIC [16]	IC50 [17]	IC50 [18]	IC50 [19]	also measured
CCOc1ccc(C(=O)O[C@H]2[C@H](Oc3c(-c4ccc(O)c(O)c4)oc4cc(O)cc(O)c4c3=O)O[C@H](CO)[C@@H](O)[C@@H]2OC(=O)c2ccc(OCC)cc2)cc1 [Compound 15e, 2-(3′,4′-Dihydroxy)-5,7-dihydroxy-3-β-D-(2″,3″-di-p-ethoxybenzoyloxy)glucosyl-4H-chromen-4-one]	122 to 123 °C	10.8 µM	16 µg/mL (≈ 21 µM)	32 µg/mL (≈ 42.1 µM)	8 µg/mL (≈ 10.5 µM)	32 µg/mL (≈ 42.1 µM)	8 µg/mL (≈ 10.5 µM)	16 µg/mL (≈ 21 µM)	16 µg/mL (≈ 21 µM)	–	–	–	–	–	–	–	–	–	–	–	–
CC(=O)OC[C@H]1O[C@@H](Oc2c(-c3ccc(O)c(O)c3)oc3cc(O)cc(O)c3c2=O)[C@H](OC(C)=O)[C@@H](OC(C)=O)[C@@H]1OC(C)=O [Compound 16, 2-(3′4′-Dihydroxy)-5,7-dihydroxy-3-β-D-tetraacetylglucosyl-4H-chromen-4-one]	109 to 110 °C	> 19 µM	> 128 µg/mL	128 µg/mL (≈ 202 µM)	128 µg/mL (≈ 202 µM)	128 µg/mL (≈ 202 µM)	128 µg/mL (≈ 202 µM)	> 128 µg/mL	> 128 µg/mL	–	–	–	–	–	–	–	–	–	–	–	–
CCCc1ccc(C(=O)O[C@H]2[C@H](Oc3c(-c4ccc(O)c(O)c4)oc4cc(O)cc(O)c4c3=O)O[C@H](CO)[C@@H](O)[C@@H]2OC(=O)c2ccc(CCC)cc2)cc1 [Compound 15f, 2-(3′,4′-Dihydroxy)-5,7-dihydroxy-3-β-D-(2″,3″-di-p-propylbenzoyloxy)glucosyl-4H-chromen-4-one]	152 to 153 °C	13.2 µM	16 µg/mL (≈ 21.1 µM)	32 µg/mL (≈ 42.3 µM)	8 µg/mL (≈ 10.6 µM)	32 µg/mL (≈ 42.3 µM)	8 µg/mL (≈ 10.6 µM)	8 µg/mL (≈ 10.6 µM)	8 µg/mL (≈ 10.6 µM)	–	–	–	–	–	–	–	–	–	–	–	–
O=C(CCc1ccc(O)cc1)OC[C@H]1O[C@@H](Oc2c(-c3ccc(O)c(O)c3)oc3cc(O)cc(O)c3c2=O)[C@H](OC(=O)CCc2ccc(O)cc2)[C@@H](O)[C@H]1O [Compound 14f, 2-(3′,4′-Dihydroxyphenyl)-5,7-dihydroxy-3-β-D-{2″,6″-di-O-[3′″-(4-hydroxyphenylpropanoyl)]}galactosyl-4H-chromen-4-one]	149 to 150 °C	–	–	–	–	–	–	–	–	4 µg/mL (≈ 5.26 µM)	2 µg/mL (≈ 2.63 µM)	1 µg/mL (≈ 1.31 µM)	4 µg/mL (≈ 5.26 µM)	2 µg/mL (≈ 2.63 µM)	1 µg/mL (≈ 1.31 µM)	> 128 µg/mL	> 128 µg/mL	2.39 µM	1.59 µM	8.86 µM	MIC [20]: 4 µg/mL (≈ 5.26 µM); MIC [21]: 2 µg/mL (≈ 2.63 µM); MIC [22]: 4 µg/mL (≈ 5.26 µM)
CCCc1ccc(C(=O)OC[C@H]2O[C@@H](Oc3c(-c4ccc(O)c(O)c4)oc4cc(O)cc(O)c4c3=O)[C@H](OC(=O)c3ccc(CCC)cc3)[C@@H](O)[C@H]2O)cc1 [Compound 14b]	150 to 151 °C	–	–	–	–	–	–	–	–	2 µg/mL (≈ 2.64 µM)	2 µg/mL (≈ 2.64 µM)	4 µg/mL (≈ 5.29 µM)	16 µg/mL (≈ 21.1 µM)	2 µg/mL (≈ 2.64 µM)	4 µg/mL (≈ 5.29 µM)	> 128 µg/mL	> 128 µg/mL	0.77 µM	1.93 µM	8.89 µM	MIC [20]: 4 µg/mL (≈ 5.29 µM); MIC [21]: 4 µg/mL (≈ 5.29 µM); MIC [22]: 8 µg/mL (≈ 10.6 µM)
